“And” between values parts separate entries of the source, which are not always exact repeats. Equal values may be shown once. Square brackets hold non-standard residues; d marks the D form. Ends that are not written are not given here.
System: growth hormone (GH) release
Experiment: In Vivo GH Release in Rats (serum GH by RIA)
Parameters: species or system immature female Sprague-Dawley rats
Conditions: rat serum, i.v., mean ± SEM, six rats
[1] = total dose 10 μg, sacrificed 10 minutes after final injection

| Substance | GH Released by Compound in Column A [1] | GH Released by Compound in Column A (total dose 20 (ng as printed), sacrificed 30 minutes after final injection) [ng/mL] |
| --- | --- | --- |
| AC[dW]AW[dF]KC-NH2 (cysteine pairing not given here) [Compound 9308] | 10 ± 1 ng/mL |  |
| CAH[dW]AW[dF]KC-NH2 (cysteine pairing not given here) [Compound 8758] | 37 ± 8 ng/mL and 26 ± 9 ng/mL | 52 ± 7 |

— patent US4839344A, “Polypeptide compounds having growth hormone releasing activity” (Eastman Kodak Company, priority 1987, dated 1989)
